Source: ChEMBL document CHEMBL1129417, “Glucose transport-enhancing and hypoglycemic activity of 2-methyl-2-phenoxy-3-phenylpropanoic acids” (1996)

Columns and labels:
[1] = test system: 3T3-L1; assay: compound was evaluated for their acute effects in vitro by measuring 2-Deoxyglucose (2DG) uptake in vehicle treated 3T3-L1 adipocytes at 10 uM dose.; assay type: functional
[2] = test system: Mus musculus; assay: compound was tested in vivo for hypoglycemic activity in 6-8 week old C57BL/6J ob/ob mouse at 10 mg/kg; assay type: functional
[3] = test system: 3T3-L1; assay: compound was evaluated for their acute effects in vitro by measuring 2-Deoxyglucose (2DG) uptake in vehicle treated 3T3-L1 adipocytes at 60 uM dose.; assay type: functional
[4] = test system: 3T3-L1; assay: compound was evaluated for their acute effects in vitro by measuring 2-Deoxyglucose (2DG) uptake in vehicle treated 3T3-L1 adipocytes at 30 uM dose.; assay type: functional
[5] = species: Rattus norvegicus; assay: Compound was tested for inhibition of gluconeogenesis; assay type: functional; details: Rattus norvegicus; read-out: ED50
[6] = test system: Mus musculus; assay: compound was tested in vivo for hypoglycemic activity expressed as Glucose lowering relative to positive control in 6-8 week old C57BL/6J ob/ob mouse at 50 mg/kg; assay type: functional
[7] = test system: Mus musculus; assay: In vivo hypoglycemic activity expressed as glucose lowering relative to positive control in 6-8 week old C57BL/6J ob/ob mouse at 10 mg/kg; assay type: functional
[8] = species: Rattus norvegicus; assay: Inhibition of gluconeogenesis in rat; assay type: functional
[9] = test system: Mus musculus; assay: compound was tested in vivo for hypoglycemic activity expressed as Glucose lowering relative to positive control in 6-8 week old C57BL/6J ob/ob mouse at 5 mg/kg; assay type: functional
[10] = test system: L6; assay: compound was evaluated for their acute effects in vitro by measuring 2-Deoxyglucose (2DG) uptake in vehicle treated L6 […] at 60 uM dose.; assay type: functional
[11] = test system: Mus musculus; assay: In vivo hypoglycemic activity expressed as glucose lowering relative to positive control in 6-8 week old C57BL/6J ob/ob mouse at 5 mg/kg.; assay type: functional
[12] = test system: 3T3-L1; assay: Acute effects in vitro by measuring 2-deoxyglucose (2DG) uptake in vehicle treated 3T3-L1 adipocytes at 30 uM dose.; assay type: functional
[13] = test system: 3T3-L1; assay: compound was evaluated for their acute effects in vitro by measuring 2-Deoxyglucose (2DG) uptake in vehicle treated 3T3-L1 adipocytes at 3 uM dose.; assay type: functional
[14] = test system: 3T3-L1; assay: Acute effects in vitro by measuring 2-deoxyglucose (2DG) uptake in vehicle treated 3T3-L1 adipocytes at 10 uM dose.; assay type: functional
[15] = test system: Mus musculus; assay: In vivo hypoglycemic activity expressed as glucose lowering relative to positive control in 6-8 week old C57BL/6J ob/ob mouse at 1 mg/kg.; assay type: functional
[16] = test system: L6; assay: compound was evaluated for their acute effects in vitro by measuring 2-Deoxyglucose (2DG) uptake in vehicle treated L6 […] at 30 uM dose.; assay type: functional
[17] = test system: L6; assay: compound was evaluated for their acute effects in vitro by measuring 2-Deoxyglucose (2DG) uptake in vehicle treated L6 […] at 3 uM dose.; assay type: functional
[18] = test system: L6; assay: compound was evaluated for their acute effects in vitro by measuring 2-Deoxyglucose (2DG) uptake in vehicle treated L6 […] at 10 uM dose.; assay type: functional
[19] = test system: Mus musculus; assay: compound was tested in vivo for hypoglycemic activity in 6-8 week old C57BL/6J ob/ob mouse at 50 mg/kg; assay type: functional
[20] = test system: Mus musculus; assay: compound was tested in vivo for hypoglycemic activity in 6-8 week old C57BL/6J ob/ob mouse at 25 mg/kg; assay type: functional
[21] = test system: 3T3-L1; assay: compound was evaluated for their acute effects in vitro by measuring 2-Deoxyglucose (2DG) uptake in vehicle treated 3T3-L1 adipocytes at 100 uM dose.; assay type: functional
[22] = test system: Mus musculus; assay: compound was tested in vivo for hypoglycemic activity expressed as Glucose lowering relative to positive control in 6-8 week old C57BL/6J ob/ob mouse at 2.5 mg/kg; assay type: functional
[23] = test system: 3T3-L1; assay: In vitro measurements 2-Deoxyglucose (2DG) uptake in vehicle treated 3T3-L1 adipocytes at 100 uM dose.; assay type: functional
[24] = test system: 3T3-L1; assay: compound was evaluated for their acute effects in vitro by measuring 2-Deoxyglucose (2DG) uptake in vehicle treated 3T3-L1 adipocytes at 1 uM dose.; assay type: functional
[25] = species: Rattus norvegicus; assay: Percentage inhibition of basal stimulated Gluconeogenesis in Isolated Rat Hepatocytes in vitro; assay type: functional, Hepatocyte
[26] = species: Rattus norvegicus; assay: Percentage inhibition of Glucagon- stimulated Gluconeogenesis in Isolated Rat Hepatocytes in vitro; assay type: functional, Hepatocyte
[27] = test system: Mus musculus; assay: compound was tested in vivo for hypoglycemic activity expressed as Glucose lowering relative to positive control in 6-8 week old C57BL/6J ob/ob mouse; assay type: functional
[28] = test system: Mus musculus; assay: compound was tested in vivo for hypoglycemic activity in 6-8 week old C57BL/6J ob/ob mouse; assay type: functional
[29] = species: Rattus norvegicus; assay: Percentage inhibition of Glucagon stimulated Gluconeogenesis in Isolated Rat Hepatocytes in vitro; assay type: functional, Hepatocyte
[30] = test system: 3T3-L1; assay: compound was evaluated for their acute effects in vitro by measuring 2-Deoxyglucose (2DG) uptake in vehicle treated 3T3-L1 adipocytes at concentration of 30 micro M; assay type: functional
[31] = test system: Mus musculus; assay: compound was tested in vivo for hypoglycemic activity expressed as Glucose lowering relative to positive control in 6-8 week old C57BL/6J ob/ob mouse at 0.1 mg/kg; assay type: functional
[32] = test system: Mus musculus; assay: compound was tested in vivo for hypoglycemic activity expressed as Glucose lowering relative to positive control in 6-8 week old C57BL/6J ob/ob mouse at 0.5 mg/kg; assay type: functional
[33] = test system: 3T3-L1; assay: compound was evaluated for their acute effects in vitro by measuring 2-Deoxyglucose (2DG) uptake in vehicle treated 3T3-L1 adipocytes at concentration of 3 micro M; assay type: functional
[34] = test system: 3T3-L1; assay: compound was evaluated for their acute effects in vitro by measuring 2-Deoxyglucose (2DG) uptake in vehicle treated 3T3-L1 adipocytes at concentration of 10 micro M; assay type: functional
[35] = Rattus norvegicus, read-out: ED50

## CC(C)c1ccc(SC(C)(Cc2ccc(Cl)cc2)C(=O)[O-])cc1.[Na+] (stereo not given)
[1]
  Basal uptake: 83%
[2]
  Hypoglycemic activity: 31%
[3]
  Basal uptake: 187%
[4]
  Basal uptake: 119%
[5]
  ED50: > 10 mg/kg

## CC(C)c1ccc(OC(CCCCCc2ccc(Cl)cc2)C(=O)[O-])cc1.[Na+] (stereo not given)
[6]
  Hypoglycemic activity: 200%
[1]
  Basal uptake: 180%
[7]
  Hypoglycemic activity: 32%
[8]; [35]
  ED50: 10 mg/kg
[9]
  Hypoglycemic activity: 35%
[10]
  Basal uptake: 44%

## CC(C)c1ccc(CC(C)(Oc2ccc(C(C)C)cc2)C(=O)[O-])cc1.[Na+] (stereo not given)
[11]
  Hypoglycemic activity: <0%
[7]
  Hypoglycemic activity: 93%
[12]
  Basal uptake: 93%
[8]; [35]
  ED50: 5 mg/kg
[13]
  Basal uptake: 97%
[14]
  Basal uptake: 97%

## CC(C)c1ccc(OC(C)(Cc2cccc(C(F)(F)F)c2)C(=O)[O-])cc1.[Na+] (stereo not given)
[15]
  Hypoglycemic activity: 44%
[16]
  Basal uptake: 121%
[11]
  Hypoglycemic activity: 46%
[7]
  Hypoglycemic activity: 64%
[8]; [35]
  ED50: 5 mg/kg
[17]
  Basal uptake: 129%
[18]
  Basal uptake: 104%

## C1CCC(NC2CCCCC2)CC1.CC(C)c1ccc(OC(Cc2cccc(C(F)(F)F)c2)C(=O)O)cc1 (stereo not given)
[19]
  Hypoglycemic activity: 76%
[2]
  Hypoglycemic activity: <0%
[20]
  Hypoglycemic activity: 64%
[21]
  Basal uptake: 284%
[5]
  ED50: 25 mg/kg

## C1CCC(NC2CCCCC2)CC1.CC(C)c1ccc(OC(CCc2ccc(Cl)cc2)C(=O)O)cc1 (stereo not given)
[20]
  Hypoglycemic activity: 64%
[10]
  Basal uptake: 89%
[21]
  Basal uptake: 89%
[5]
  ED50: < 25 mg/kg

## CC(C)c1ccc(OC(C)(Cc2ccc(Cl)cc2)C(=O)O)cc1 (stereo in doubt; 27)
[22]
  Hypoglycemic activity: 79%
[15]; 1 mg/kg
  Hypoglycemic activity: 36%
[11]; 5 mg/kg
  Hypoglycemic activity: 65%
[8]
  ED50: 1 mg/kg
[23]
  Basal uptake: 214%

## CC(C)c1ccc(SC(Cc2ccc(Cl)cc2)C(=O)O)cc1 (stereo not given)
[19]
  Hypoglycemic activity: 90%
[2]
  Hypoglycemic activity: 0%
[3]
  Basal uptake: 102%
[5]
  ED50: 10 mg/kg

## CC(C)c1ccc(OC(C)(Cc2ccccc2)C(=O)[O-])cc1.[Na+] (stereo not given)
[7]
  Hypoglycemic activity: 3%
[8]; [35]
  ED50: > 10 mg/kg
[13]
  Basal uptake: 162%
[24]
  Basal uptake: 100%
[14]
  Basal uptake: 126%

## CC(C)c1ccc(OC(Cc2ccccc2)C(=O)O)cc1 (stereo not given)
[6]
  Hypoglycemic activity: 50%
[8]; [35]
  ED50: 50 mg/kg
[25]
  Inhibition: 41%
[23]
  Basal uptake: 79%
[26]
  Inhibition: 25%

## Cc1ccc(CC(Oc2ccc(C(C)C)cc2)C(=O)O)cc1 (stereo not given)
[27]
  Hypoglycemic activity: 113%
[8]; [35]
  ED50: < 50 mg/kg
[28]
  Glucose lowering ob/ob dose: 50 mg/kg
[23]
  Basal uptake: 147%

## CC(C)c1ccc(OC(C)(C[N-]SC(F)(F)F)Cc2ccc(Cl)cc2)cc1.[Na+] (stereo not given)
[1]
  Basal uptake: 132%
[2]
  Hypoglycemic activity: <0%
[13]
  Basal uptake: 127%
[4]
  Basal uptake: 159%
[5]
  ED50: > 10 mg/kg

## CC(C)c1ccc(OC(C)(Cc2ccc(Cl)cc2)C(=O)O)cc1 (stereo in doubt; 28)
[22]
  Hypoglycemic activity: 88%
[15]; 1 mg/kg
  Hypoglycemic activity: 47%
[11]; 5 mg/kg
  Hypoglycemic activity: 100%
[23]
  Basal uptake: 229%

## C1CCC(NC2CCCCC2)CC1.CC(C)c1ccc(OC(Cc2cccc(F)c2)C(=O)O)cc1 (stereo not given)
[19]
  Hypoglycemic activity: 100%
[29]
  Inhibition: 3%
[20]
  Hypoglycemic activity: 65%
[25]
  Inhibition: 38%
[21]
  Basal uptake: 111%
[5]
  ED50: < 25 mg/kg

## CCc1cccc(CC(C)(Oc2ccc(Cc3ccccc3)cc2)C(=O)[O-])c1.[Na+] (stereo not given)
[15]
  Hypoglycemic activity: 87%
[11]
  Hypoglycemic activity: 102%
[30]
  Basal uptake: 265%
[7]
  Hypoglycemic activity: 101%
[31]
  Hypoglycemic activity: 73%
[8]; [35]
  ED50: 0.1 mg/kg
[32]
  Hypoglycemic activity: 52%
[33]
  Basal uptake: 128%
[34]
  Basal uptake: 179%
